Patent publication US11154529B2, “Phosphaplatin liquid formulations” (Phosplatin Therapeutics Inc., priority 2016, dated 2021)

Test: Design of Experiment study on pyrophosphate ion stabilization, stability at 60° C.
Assay type: physicochemical
Conditions: added pyrophosphate ion as little as ~0.25 molar equivalent
Source text: Specifically the presence of pyrophosphate results in the rapid disappearance of the (R,R)-pyrodach-2 dimer impurity and the RRT-3.1-3.2 impurity.

O=P1(O)OP(=O)(O)[O][Pt]2([NH][C@@H]3CCCC[C@H]3[NH]2)[O]1 (stereo partly drawn) [(R,R)-pyrodach-2, (R,R)-trans-1,2-cyclohexanediamine-(dihydrogenpyrophosphato)platinum(II)]
overall rate of (R,R)-pyrodach-2 degradation and impurity appearance: dramatic decrease
